Measurements: patent US20110136911A1 (The Feinstein Institute for Medical Research, priority 2007, published 2011)

What was measured:
[1] = test system: leukocyte recruitment into air pouch; assay: Air pouch model of acute inflammation (carrageenan); type: in vivo, mice; conditions: 4 mg/kg i.p. 15 min before 1% carrageenan, exudate after five hours
Description: Air pouches were produced according to standard procedures (Garcia-Ramallo et al., 2002) using C57bk6 mice (wild-type) or strain-matched mice lacking both copies of the MIF gene (MIF−/−) by injecting sterile air s.c. on day 0 (6 ml) and day 3 (3 ml). […] 15 min. later the animals were challenged by injecting 1 ml 1% carrageenan (in PBS) into the air pouch cavity. Five hours after carrageenan injection the animals were sacrificed, the pouches washed with PBS, exudates collected, and the total number of infiltrating cells quantitated.

[2] = test system: cecal ligation and puncture (CLP) model of sepsis; assay: Cecal ligation and puncture (CLP) model of sepsis; type: in vivo, mice
Description: In anesthetized male Balb/C mice (ketamine 100 mg/kg and xylazine 8 mg/kg administered intramuscularly), abdominal access was gained via a midline incision. The cecum was isolated and ligated with a 6-0 silk ligature below the ileocecal valve, and the cecum punctured once with a 22 G needle, stool (approximately 1 mm^3) extruded from the hole, and the cecum placed back into the abdominal cavity. The abdomen was closed with two layers of 6-0 Ethilon sutures. Antibiotics were administered immediately after CLP (Premaxin 0.5 mg/kg, subcutaneously, in a total volume of 0.5 ml/mouse) and a single dose of resuscitative fluid (normal saline solution) was administered subcutaneously (20 ml/kg-body weight) immediately after CLP. […] Additionally, two injections were given on day 2 and day 3.
The cecal ligation and puncture experiment was repeated in a second group of animals. The experimental procedure was identical to that used in the preceding example.

[3] = test system: LPS-stimulated RAW 267.4 cells; assay: TNF secretion from LPS-stimulated RAW macrophages (ELISA); type: cell-based; conditions: 0.1 μg/ml LPS
Description: After 16 h, cell culture supernatants were collected for determination of TNF concentration by enzyme-linked immunosorbent assay (R & D Systems).

[4] = cited from earlier work

SMILES | leukocyte recruitment (number of infiltrating cells), wild-type mice ([1]; C57bk6 wild-type, p<0.04 relative to vehicle) | leukocyte recruitment (number of infiltrating cells), MIF knockout mice ([1]; MIF−/− mice, n.s.) | survival ([2]; male Balb/C mice, 4 mg/kg i.p. 24 hours after CLP, further injections on day 2 and day 3, n=10, vehicle 2/10) | survival, repeat experiment in a second group of animals ([2]; procedure identical to the first CLP experiment, FIG. 4) | IC50 ([3]; RAW267.4, 30 minutes preincubation, supernatants after 16 h, read-out: IC50, inhibition of the release of TNFα) | free (unbound) hormone as percentage of the total hormone in plasma [4] | inhibitory effect on TNF release compared with ISO-1 ([3]; 0.01-50 μM, 16 h)
N[C@H](Cc1cc(I)c(Oc2cc(I)c(O)c(I)c2)c(I)c1)C(=O)O [D-T4, dextrothyroxine] | inhibits leukocyte recruitment | not in MIF knockout animals | 6/10 | dramatically increases survival | 1000 nM | – | –
N[C@@H](Cc1cc(I)c(Oc2cc(I)c(O)c(I)c2)c(I)c1)C(=O)O [L-T4, L-thyroxine] | – | – | – | – | – | about 0.03% | more potent than ISO-1
